Source: patent US12384780B2, “PARP1 inhibitors and uses thereof” (XinThera, Inc., priority 2022, dated 2025)

Legend:
PARP1 = biological target: T1, PARP1 (Homo sapiens, UniProt P09874); assay: Biochemical fluorescent polarization (FP) assay, displacement of PARPi-FL, PARP1; format: binding; conditions: 20 nM protein, 3 nM PARPi-FL, 4 h at room temperature; for IC50: read-out: FP PARP1 pIC50 (converted)
T1 construct: made in house
Method: (§1) Compounds were characterized using an assay measuring the displacement of a commercially available fluorescently labeled PARP 1/2 inhibitor (PARPi-FL, Tocris Biosciences, #6461) as exemplified in assays performed in WO2014/064149 and WO2021/013735A1. The assay was performed utilizing the following method: Compounds were dissolved in DMSO an Echo550 liquid handler was utilized to make serial dilations in the desired concentration range in Optiplate-384F plates. 100% DMSO was used for the high (with protein) and low (without protein) control samples. 20 nL of compound or DMSO alone was added to individual assay plate wells. PARP1 and PARP2 protein were expressed, purified, and diluted in assay buffer containing 50 mM Tris pH 8.0, 0.001% Triton X-100, 10 mM MgCl2, 150 mM NaCl to a final concentration of 20 nM. The PARPi-FL was then added at a final concentration of 3 nM. The assay plate was centrifuged at 1000 rpm for 1 min and incubated for 4 h at room temperature. […] [formula]

PARP2 = biological target: T2, PARP2 (Homo sapiens, UniProt Q9UGN5); assay: Biochemical fluorescent polarization (FP) assay, displacement of PARPi-FL, PARP2; format: binding; conditions: 20 nM protein, 3 nM PARPi-FL, 4 h at room temperature; read-out: FP PARP2 pIC50 (converted)
T2 construct: made in house
Method: as §1

DLD-1 BRCA2(−/−) cells = assay: Cell growth inhibition assay (CellTiter-Glo), DLD-1 BRCA2(−/−); format: cell-based; conditions: 200 cells/well, 7 days, CellTiter Glo 2.0; for EC50: Homo sapiens, DLD-1, 168 h, read-out: DLD-1 BRCA2(−/−) pEC50 (converted)
Method: (§2) Cell proliferation was measured through the cell viability assay using DLD-1 BRCA2(−/−) and parental isogenic pair and MDA-MB-436 (mutated BRCA1) cell lines. The CellTiter-Glo (CTG) based cell viability assay is designed to determine the number of viable cells in the culture because of compound effect, by quantifying ATP, which indicates the presence of metabolically active cells.
(§3) DLD-1 BRCA2(−/−) and parental isogenic pair were cultured in RPMI 1640 supplemented with […] (FBS), and […] cells were cultured in DMEM supplemented with 10% FBS. Both were cultured at 37° C. with […]. Invention compounds were distributed to the 384 well plate (Corning, 3764) using Echo acoustic liquid handler to form a 1:3 serially diluted final concentration with top dose of 10 or 30 μM. The cells were seeded into the plate in the density of 50 cells/well (DLD-1 parental), 200 cells/well (DLD-1 BRCA2−/−), or 500 cells/well (MDA-MB-436). After a short spun, the cells were cultured in a well moisturized incubator at 37° C. with 5% CO2 for 7 days without disturbance. The cell viability was measured by CellTiter Glo 2.0 assay kit (Promega, G9243), and growth inhibition rate was calculated and plotted against final compound concentration, and the data were fitted in Xfit to generate IC50 values.

[1] = test system: MDA-MB-436 (mutated BRCA1) cells; assay: Cell growth inhibition assay (CellTiter-Glo), MDA-MB-436; format: cell-based; conditions: 500 cells/well, 7 days, CellTiter Glo 2.0; for EC50: Homo sapiens, MDA-MB-436, 168 h, read-out: MDA-MB-436 pEC50 (converted)
Method: as §2, §3

T1 sequence (P09874 whole entry): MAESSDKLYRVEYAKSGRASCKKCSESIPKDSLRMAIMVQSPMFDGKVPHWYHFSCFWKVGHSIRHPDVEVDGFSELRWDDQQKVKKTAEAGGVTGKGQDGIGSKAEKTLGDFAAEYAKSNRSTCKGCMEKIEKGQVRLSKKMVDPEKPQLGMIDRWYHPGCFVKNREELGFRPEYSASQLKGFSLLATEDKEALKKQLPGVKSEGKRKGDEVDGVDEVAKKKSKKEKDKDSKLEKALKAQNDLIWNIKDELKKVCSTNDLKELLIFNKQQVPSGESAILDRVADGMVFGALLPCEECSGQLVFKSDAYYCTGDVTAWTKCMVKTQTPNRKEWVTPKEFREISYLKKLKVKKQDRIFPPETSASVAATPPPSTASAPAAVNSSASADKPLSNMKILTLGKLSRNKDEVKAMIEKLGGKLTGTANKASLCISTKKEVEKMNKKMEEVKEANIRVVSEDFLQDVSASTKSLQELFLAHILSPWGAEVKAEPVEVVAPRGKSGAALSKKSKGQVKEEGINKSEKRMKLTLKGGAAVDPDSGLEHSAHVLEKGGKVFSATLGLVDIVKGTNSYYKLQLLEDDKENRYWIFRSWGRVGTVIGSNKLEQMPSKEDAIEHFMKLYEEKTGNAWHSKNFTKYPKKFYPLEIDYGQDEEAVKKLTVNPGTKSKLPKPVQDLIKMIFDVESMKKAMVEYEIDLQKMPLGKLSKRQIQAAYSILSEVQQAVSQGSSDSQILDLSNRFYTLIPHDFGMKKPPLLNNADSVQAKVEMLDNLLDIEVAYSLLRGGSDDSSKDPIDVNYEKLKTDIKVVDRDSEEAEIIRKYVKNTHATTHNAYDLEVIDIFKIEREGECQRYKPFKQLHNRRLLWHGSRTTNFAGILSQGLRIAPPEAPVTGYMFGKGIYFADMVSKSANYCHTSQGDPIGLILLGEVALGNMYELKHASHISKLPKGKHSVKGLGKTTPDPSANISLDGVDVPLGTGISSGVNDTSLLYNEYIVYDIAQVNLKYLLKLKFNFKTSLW
T2 sequence (Q9UGN5 whole entry): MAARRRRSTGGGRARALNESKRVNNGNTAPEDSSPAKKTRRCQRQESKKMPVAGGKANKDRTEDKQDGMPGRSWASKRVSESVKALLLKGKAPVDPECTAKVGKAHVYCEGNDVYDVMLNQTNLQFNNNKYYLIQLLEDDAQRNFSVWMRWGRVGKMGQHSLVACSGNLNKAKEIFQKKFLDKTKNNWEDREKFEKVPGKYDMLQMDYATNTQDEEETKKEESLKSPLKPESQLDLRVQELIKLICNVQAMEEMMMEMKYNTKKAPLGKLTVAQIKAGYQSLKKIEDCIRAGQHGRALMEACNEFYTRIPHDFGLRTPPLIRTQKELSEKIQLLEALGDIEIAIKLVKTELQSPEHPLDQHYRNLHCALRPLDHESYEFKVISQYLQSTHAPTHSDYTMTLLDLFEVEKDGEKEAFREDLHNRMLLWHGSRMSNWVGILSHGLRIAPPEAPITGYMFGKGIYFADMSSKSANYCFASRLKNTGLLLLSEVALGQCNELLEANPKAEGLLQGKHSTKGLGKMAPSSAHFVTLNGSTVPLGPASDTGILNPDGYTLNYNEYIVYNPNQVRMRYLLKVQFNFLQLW

| SMILES | IC50 (PARP1) [nM] | IC50 (PARP2) [nM] | EC50 (DLD-1 BRCA2(−/−) cells) [nM] | EC50 [1] [nM] | DLD-1 BRCA2(−/−) pEC50 (DLD-1 BRCA2(−/−) cells) | MDA-MB-436 pEC50 [1] | FP PARP1 pIC50 (PARP1) |
| --- | --- | --- | --- | --- | --- | --- | --- |
| Cc1cc2ncc([C@@H](C)N3CCN(c4ccc(C#N)cn4)CC3)cc2[nH]c1=O (single isomer, unassigned) [Example 33] | 2.51 | 6310 | 3.16 | 2.51 | – | – | – |
| Cc1c(Cl)c(=O)[nH]c2cc(CN3CCN(c4ccc(C#N)cc4)CC3)cnc12 [Example 2, 4-{4-[(7-chloro-8-methyl-6-oxo-5H-1,5-naphthyridin-3-yl)methyl]piperazin-1-yl}benzonitrile] | 50.1 | 7940 | 1.58 | 1.26 | – | – | – |
| CCc1cc2ncc(CN3CCN(c4ccc(Cl)cn4)CC3)cc2[nH]c1=O [Example 8] | 15.8 | > 100000 | 5.01 | 3.16 | – | – | – |
| Cc1cc2ncc(CN3CCN(c4ccc(C#N)nc4)CC3)cc2[nH]c1=O [Example 11] | 10 | 79400 | 20 | 39.8 | – | – | – |
| Cc1cc2ncc(CN3CCN(c4cc(F)c(C#N)cc4F)CC3)cc2[nH]c1=O [Example 13] | 5.01 | > 100000 | 5.01 | 3.98 | – | – | – |
| O=c1[nH]c2cc(CN3CCN(c4ccc(F)cn4)CC3)cnc2cc1C1CC1 [Example 16, 3-cyclopropyl-7-{[4-(5-fluoropyridin-2-yl)piperazin-1-yl]methyl}-1H-1,5-naphthyridin-2-one] | – | 2510 | 10 | 10 | – | – | 8.5 |
| Cc1cc2ncc(CN3CCN(c4ccc(C#N)cc4F)CC3)cc2[nH]c1=O [Example 18] | 5.01 | > 100000 | 3.16 | 2.51 | – | – | – |
| C[C@@H]1CN(Cc2cnc3cc(C4CC4)c(=O)[nH]c3c2)CCN1c1ccc(F)cn1 [Example 22] | 7.94 | 12600 | 126 | 158 | – | – | – |
| Cc1cc2ncc(CN3CCN(c4ccc(F)cn4)[C@H](C)C3)cc2[nH]c1=O [Example 23] | 39.8 | > 100000 | 100 | 200 | – | – | – |

Now from value to compound:

| IC50 (PARP1) [nM] | IC50 (PARP2) [nM] | EC50 (DLD-1 BRCA2(−/−) cells) [nM] | EC50 [1] [nM] | DLD-1 BRCA2(−/−) pEC50 (DLD-1 BRCA2(−/−) cells) | MDA-MB-436 pEC50 [1] | FP PARP1 pIC50 (PARP1) | SMILES |
| --- | --- | --- | --- | --- | --- | --- | --- |
| 12.6 | 79400 | 39.8 | 25.1 | – | – | – | N#Cc1ccc(N2CCN(Cc3cnc4cc(C5CCCO5)c(=O)[nH]c4c3)CC2)nc1 (single isomer, unassigned) [Example 68, 6-(4-{[6-oxo-7-(oxolan-2-yl)-5H-1,5-naphthyridin-3-yl]methyl}piperazin-1-yl)pyridine-3-carbonitrile] |
| 10 | 39800 | – | – | 7.4 | 7.8 | – | N#Cc1ccc(N2CCN(Cc3cnc4cc(C5CCCO5)c(=O)[nH]c4c3)CC2)nc1 (single isomer, unassigned) [Example 69, 6-(4-{[6-oxo-7-(oxolan-2-yl)-5H-1,5-naphthyridin-3-yl]methyl}piperazin-1-yl)pyridine-3-carbonitrile] |
| – | > 100000 | 3.98 | 3.98 | – | – | 8.5 | CCc1nc2c(F)cc(CN3CCN(c4ccc(C#N)cn4)CC3)cc2[nH]c1=O [Example 5, 6-(4-((2-ethyl-8-fluoro-3-oxo-3,4-dihydroquinoxalin-6-yl)methyl)piperazin-1-yl)nicotinonitrile] |
| 25.1 | > 100000 | 6.31 | 6.31 | – | – | – | CCc1cc2ncc(CN3CCN(c4ccc(Br)cn4)CC3)cc2[nH]c1=O [Example 7] |
| 6.31 | 1580 | 0.501 | 0.501 | – | – | – | CCc1cc2ncc(CN3CCN(c4ccc(C#N)cc4)CC3)cc2[nH]c1=O [Example 9] |
| 5.01 | 5010 | 0.794 | 0.794 | – | – | – | CCc1cc2ncc(CN3CCN(c4ccc(C#N)cn4)CC3)cc2[nH]c1=O [Example 10] |
| 5.01 | 1260 | 7.94 | 12.6 | – | – | – | CCc1cc2ncc(CN3CCN(c4ccc(C#N)cn4)[C@H](C)C3)cc2[nH]c1=O [Example 21] |
